# Data published in publication PMC9791402, “Yeast 9-1-1 complex acts as a sliding clamp for DNA synthesis by DNA polymerase ε” (The Journal of Biological Chemistry, 2022).
# Molecular target: T1, Polε (WT holoenzyme) (Saccharomyces cerevisiae, UniProt P21951)
# T1 construct: gene POL2; four-subunit holoenzyme, GST tag on Pol2 cut with PreScission protease, gel filtration, expressed in yeast YRP654; with DNA polymerase epsilon subunit B; DNA polymerase epsilon subunit C; DNA polymerase epsilon subunit D
# Test: gel-based primer extension, […]-labeled primer
# Format: biochemical
# Details: 50 μM dCTP running start opposite a run of 5 template G; 5 mM MgCl2, pH 7.5, 30 °C
# T1 sequence (P21951 whole entry): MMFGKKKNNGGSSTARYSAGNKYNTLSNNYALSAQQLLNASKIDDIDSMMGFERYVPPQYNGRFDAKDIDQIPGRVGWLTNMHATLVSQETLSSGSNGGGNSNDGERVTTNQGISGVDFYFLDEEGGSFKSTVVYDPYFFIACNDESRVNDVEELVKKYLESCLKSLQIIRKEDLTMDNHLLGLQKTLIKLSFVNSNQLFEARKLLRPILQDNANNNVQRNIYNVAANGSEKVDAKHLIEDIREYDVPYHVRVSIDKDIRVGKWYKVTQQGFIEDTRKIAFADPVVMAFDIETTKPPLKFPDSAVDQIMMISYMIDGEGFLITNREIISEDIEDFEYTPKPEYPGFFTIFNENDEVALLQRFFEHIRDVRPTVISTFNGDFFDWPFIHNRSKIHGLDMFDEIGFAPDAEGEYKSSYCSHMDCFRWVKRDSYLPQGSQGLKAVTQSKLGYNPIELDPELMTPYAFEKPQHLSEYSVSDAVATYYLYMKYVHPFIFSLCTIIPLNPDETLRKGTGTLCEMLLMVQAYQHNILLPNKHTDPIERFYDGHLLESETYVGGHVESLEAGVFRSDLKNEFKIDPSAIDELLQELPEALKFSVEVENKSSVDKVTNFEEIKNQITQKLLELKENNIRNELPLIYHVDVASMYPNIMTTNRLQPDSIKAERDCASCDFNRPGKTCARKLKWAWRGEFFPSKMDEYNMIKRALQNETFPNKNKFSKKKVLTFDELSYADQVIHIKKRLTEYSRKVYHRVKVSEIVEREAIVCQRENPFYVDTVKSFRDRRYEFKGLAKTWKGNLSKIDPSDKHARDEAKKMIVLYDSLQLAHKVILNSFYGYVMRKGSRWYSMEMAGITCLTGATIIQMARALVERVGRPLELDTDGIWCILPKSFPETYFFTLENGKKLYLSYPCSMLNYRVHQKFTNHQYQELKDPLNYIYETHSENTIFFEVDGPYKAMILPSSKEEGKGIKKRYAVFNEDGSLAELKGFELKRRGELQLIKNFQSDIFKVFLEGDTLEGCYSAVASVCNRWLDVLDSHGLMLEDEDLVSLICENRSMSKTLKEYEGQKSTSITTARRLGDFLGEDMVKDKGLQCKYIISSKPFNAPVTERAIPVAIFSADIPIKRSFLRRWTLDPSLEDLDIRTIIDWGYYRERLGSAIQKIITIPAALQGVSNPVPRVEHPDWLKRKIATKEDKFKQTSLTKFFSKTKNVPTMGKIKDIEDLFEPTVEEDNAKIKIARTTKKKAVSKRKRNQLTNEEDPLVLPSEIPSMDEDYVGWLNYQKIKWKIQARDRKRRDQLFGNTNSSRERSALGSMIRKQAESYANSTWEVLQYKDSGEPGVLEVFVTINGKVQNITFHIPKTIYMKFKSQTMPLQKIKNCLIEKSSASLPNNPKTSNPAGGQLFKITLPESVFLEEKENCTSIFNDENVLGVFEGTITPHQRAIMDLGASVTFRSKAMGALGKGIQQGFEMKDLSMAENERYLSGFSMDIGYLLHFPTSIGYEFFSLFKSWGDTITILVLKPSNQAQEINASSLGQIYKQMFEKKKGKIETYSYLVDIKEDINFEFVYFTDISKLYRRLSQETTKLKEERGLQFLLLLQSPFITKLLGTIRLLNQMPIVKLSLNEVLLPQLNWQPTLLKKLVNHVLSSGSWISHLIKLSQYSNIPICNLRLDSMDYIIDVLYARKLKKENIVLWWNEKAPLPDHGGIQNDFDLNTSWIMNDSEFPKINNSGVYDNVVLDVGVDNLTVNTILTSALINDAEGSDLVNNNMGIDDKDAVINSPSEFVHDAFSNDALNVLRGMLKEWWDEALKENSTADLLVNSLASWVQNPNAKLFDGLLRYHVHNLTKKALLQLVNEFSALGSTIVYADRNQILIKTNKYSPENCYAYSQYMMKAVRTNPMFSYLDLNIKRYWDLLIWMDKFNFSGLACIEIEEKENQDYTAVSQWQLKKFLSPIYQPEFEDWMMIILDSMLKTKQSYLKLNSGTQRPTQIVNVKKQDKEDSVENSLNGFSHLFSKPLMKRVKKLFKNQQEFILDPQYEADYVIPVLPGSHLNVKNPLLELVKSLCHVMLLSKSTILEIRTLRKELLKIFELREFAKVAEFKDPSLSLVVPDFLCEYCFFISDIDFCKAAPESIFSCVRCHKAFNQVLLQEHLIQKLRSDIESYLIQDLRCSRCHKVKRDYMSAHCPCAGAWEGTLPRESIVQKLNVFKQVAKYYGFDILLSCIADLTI
# T1 sequence (P24482 whole entry partner): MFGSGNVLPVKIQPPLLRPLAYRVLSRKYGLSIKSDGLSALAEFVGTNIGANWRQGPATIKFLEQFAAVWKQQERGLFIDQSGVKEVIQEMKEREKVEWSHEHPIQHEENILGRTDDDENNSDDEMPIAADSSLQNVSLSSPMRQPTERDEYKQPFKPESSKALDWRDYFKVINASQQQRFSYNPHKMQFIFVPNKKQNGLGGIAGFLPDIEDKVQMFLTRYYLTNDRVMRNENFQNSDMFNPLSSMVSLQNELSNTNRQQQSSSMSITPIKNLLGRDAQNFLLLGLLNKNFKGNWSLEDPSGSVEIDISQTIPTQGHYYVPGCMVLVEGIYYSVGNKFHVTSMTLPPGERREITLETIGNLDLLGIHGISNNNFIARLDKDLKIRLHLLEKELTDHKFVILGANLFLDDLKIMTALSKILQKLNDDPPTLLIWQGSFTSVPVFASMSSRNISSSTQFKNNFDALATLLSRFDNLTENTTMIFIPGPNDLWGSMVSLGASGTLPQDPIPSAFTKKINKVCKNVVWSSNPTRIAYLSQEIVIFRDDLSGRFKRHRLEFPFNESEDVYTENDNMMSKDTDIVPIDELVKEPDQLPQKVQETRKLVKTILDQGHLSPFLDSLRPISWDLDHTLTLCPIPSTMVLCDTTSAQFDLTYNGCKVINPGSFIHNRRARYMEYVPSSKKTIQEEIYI
# T1 sequence (P27344 whole entry partner): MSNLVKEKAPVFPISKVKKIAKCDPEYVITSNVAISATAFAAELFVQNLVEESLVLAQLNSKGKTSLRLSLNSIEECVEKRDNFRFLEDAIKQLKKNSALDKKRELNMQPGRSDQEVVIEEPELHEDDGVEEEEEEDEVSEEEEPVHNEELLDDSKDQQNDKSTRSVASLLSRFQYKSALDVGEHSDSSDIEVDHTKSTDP
# T1 sequence (Q04603 whole entry partner): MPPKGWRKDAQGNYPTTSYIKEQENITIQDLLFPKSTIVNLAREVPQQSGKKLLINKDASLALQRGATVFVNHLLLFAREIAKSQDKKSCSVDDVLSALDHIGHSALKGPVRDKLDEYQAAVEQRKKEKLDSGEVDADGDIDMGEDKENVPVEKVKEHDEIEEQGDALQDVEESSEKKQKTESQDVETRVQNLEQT
smiles,measurement,value
Nc1ccn([C@H]2C[C@H](O)[C@@H](COP(=O)(O)OP(=O)(O)OP(=O)(O)O)O2)c(=O)n1 [dCTP],"gel-based primer extension, 32P-labeled primer",dCTP was added to initiate DNA synthesis opposite the template G residues
